The test system of this test is T1, ethyl carbamate hydrolase (ECH; AcECH).
T1 construct: codon-optimized synthetic gene in pET24b (NdeI/XhoI), C-terminal His-tag kept, E. coli BL21(DE3), Ni-NTA purified; about 33 kDa by SDS-PAGE
Nature of the test: Berthelot indophenol ammonia assay, […] nm; Lineweaver-Burk. In kind it is biochemical, Acinetobacter calcoaceticus. As to conditions: free enzyme; 5-30 mM EC; standard assay 70 °C, pH 7.0 (not restated for kinetics).

The structures appear in SMILES notation.

On to `CCOC(N)=O` [EC, ethyl carbamate], for which the Michaelis constant (Km) was found to be 9.38 mM.
